Assay results: ChEMBL document CHEMBL1221304, “Proline isosteres in a series of 2,4-disubstituted pyrrolo[1,2-f][1,2,4]triazine inhibitors of IGF-1R kinase and IR kinase” (Bioorg Med Chem Lett, 2010)

Columns and labels:
[1] = Permeability by PAMPA assay; type: ADME; conditions: for Papp: read-out: permeability
[2] = target: T1, Insulin-like growth factor 1 receptor (Homo sapiens, UniProt P08069); experiment: Inhibition of IGF1R in IGF1R-SAL cells; type: cell-based
[3] = target: T1, Insulin-like growth factor 1 receptor; experiment: Inhibition of IGF1R

T1 sequence (P08069 31-736 limits assumed): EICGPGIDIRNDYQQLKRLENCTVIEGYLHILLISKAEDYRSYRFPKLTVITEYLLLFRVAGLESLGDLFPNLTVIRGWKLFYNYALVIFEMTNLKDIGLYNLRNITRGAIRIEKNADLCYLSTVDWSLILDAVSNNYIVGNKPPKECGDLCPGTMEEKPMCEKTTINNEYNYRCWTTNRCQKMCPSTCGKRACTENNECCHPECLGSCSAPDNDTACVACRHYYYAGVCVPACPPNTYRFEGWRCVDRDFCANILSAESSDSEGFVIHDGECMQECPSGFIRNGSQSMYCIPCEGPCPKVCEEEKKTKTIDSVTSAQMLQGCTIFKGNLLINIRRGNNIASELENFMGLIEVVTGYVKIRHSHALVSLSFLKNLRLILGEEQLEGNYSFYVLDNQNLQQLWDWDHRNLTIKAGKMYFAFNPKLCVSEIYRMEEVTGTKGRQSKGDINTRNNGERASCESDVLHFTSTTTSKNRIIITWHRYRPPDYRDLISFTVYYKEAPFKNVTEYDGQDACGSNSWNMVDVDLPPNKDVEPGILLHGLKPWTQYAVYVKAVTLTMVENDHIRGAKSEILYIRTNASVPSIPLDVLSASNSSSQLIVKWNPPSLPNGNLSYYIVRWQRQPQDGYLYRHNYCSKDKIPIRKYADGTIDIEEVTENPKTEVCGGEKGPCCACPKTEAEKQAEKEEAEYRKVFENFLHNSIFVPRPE
T1 sequence (P08069 741-1367 limits assumed): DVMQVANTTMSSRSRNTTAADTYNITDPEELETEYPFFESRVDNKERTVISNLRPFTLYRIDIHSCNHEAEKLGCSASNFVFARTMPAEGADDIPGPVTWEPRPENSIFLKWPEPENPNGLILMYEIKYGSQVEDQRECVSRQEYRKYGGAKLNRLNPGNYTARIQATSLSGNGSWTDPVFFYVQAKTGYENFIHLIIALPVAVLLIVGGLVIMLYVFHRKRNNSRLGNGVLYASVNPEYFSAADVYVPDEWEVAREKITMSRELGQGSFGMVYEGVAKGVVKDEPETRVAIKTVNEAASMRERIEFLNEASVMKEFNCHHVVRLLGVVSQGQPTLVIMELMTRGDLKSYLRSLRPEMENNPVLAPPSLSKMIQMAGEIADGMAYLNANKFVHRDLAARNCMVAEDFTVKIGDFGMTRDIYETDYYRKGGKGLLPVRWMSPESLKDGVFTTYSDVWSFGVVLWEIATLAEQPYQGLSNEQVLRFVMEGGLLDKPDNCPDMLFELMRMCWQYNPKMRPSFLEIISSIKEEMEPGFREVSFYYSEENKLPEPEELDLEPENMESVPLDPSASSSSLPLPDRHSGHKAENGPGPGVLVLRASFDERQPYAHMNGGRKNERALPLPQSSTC

Compound | Papp [1] | IC50 [2] | IC50 [3] | permeability [1]
O=C(NCc1nc(Nc2cc(C3CC3)n[nH]2)c2cccn2n1)c1ccc(F)nc1 | 52.5 ×10⁻⁶ cm/s | 40 nM | – | –
O=C(Nc1ccc(F)nc1)[C@@H]1CCC[C@H]1c1nc(Nc2cc(C3CC3)n[nH]2)c2cccn2n1 (stereo in doubt; (+)-25) | 50.9 ×10⁻⁶ cm/s | 206 nM | 9.7 nM | –
O=C(c1ccc(F)nc1)N1CCC[C@H]1c1nc(Nc2cc(C3CC3)[nH]n2)c2cccn2n1 | 72.1 ×10⁻⁶ cm/s | 162 nM | – | –
O=C(c1ccc(F)nc1)N1CCC[C@@H]1c1nc(Nc2cc(C3CC3)[nH]n2)c2cccn2n1 | 93.5 ×10⁻⁶ cm/s | – | 8400 nM | –
O=C(Nc1ccc(F)nc1)[C@@H]1CCC[C@H]1c1nc(Nc2cc(C3CC3)n[nH]2)c2cccn2n1 (stereo in doubt; (-)-25) | – | 389 nM | 190 nM | 85.4 ×10⁻⁶ cm/s

Further lines, results first:

Papp [1] | IC50 [2] | IC50 [3] | permeability [1] | Compound
63.4 ×10⁻⁶ cm/s | – | – | – | C[C@@]1(C(=O)Nc2ccc(F)nc2)CCCN1c1nc(Nc2cc(C3CC3)n[nH]2)c2cccn2n1 [BMS-754807]
82.2 ×10⁻⁶ cm/s | 237 nM | 32 nM | – | O=C(Nc1ccc(F)nc1)C1=C(c2nc(Nc3cc(C4CC4)[nH]n3)c3cccn3n2)CCC1
60 ×10⁻⁶ cm/s | 508 nM | 11 nM | – | O=C1CC[C@@H](c2nc(Nc3cc(C4CC4)[nH]n3)c3cccn3n2)N1C(=O)c1ccc(F)nc1
77 ×10⁻⁶ cm/s | 1 nM | 2.7 nM | – | O=C(Nc1ccc(F)nc1)[C@@H]1CCCN1c1nc(Nc2cc(C3CC3)[nH]n2)c2cccn2n1
